Measurements: patent US11168095B2, “ASK1 inhibiting agents” (BIOGEN MA INC., priority 2017, dated 2021)
Like-named read-outs stand apart in the source and are kept apart here.

Tests used:
ASK1/MAP3K5 = ASK1/MAP3K5 (Homo sapiens (Human), UniProt Q99683); assay: ASK1/MAP3K5 assay by Reaction Biology Corp.; type: biochemical
Method: ASK1/MAP3K5 was used as the protein kinase and 20 μM of myelin basic protein (MBP) and 10 μM ATP were used as the substrate.

[1] = target: ASK1 T838 auto phosphorylation in HEK-293T cells (Homo sapiens (Human), UniProt Q99683); assay: ASK1 (AUTO PHOS T838) assay, MSD format; type: cell-based; details: HEK 293T cells transfected with ASK1-V5 full length plasmid, compounds 1 hr at 37° C.; read-out: IC50
Method: The plates were incubated at 37° C. overnight. Media on plates was changed to OPTI-MEM, serum free media and cells were transfected with 9 μg of ASK1-V5 tagged full length plasmid using Lipofectamine 2000 (Invitrogen) and the plates were incubated at 37° C. overnight. Cells were trypsinized, counted on Nexcellometer and plated into 96 well tissue culture plates with 100,000 cells/well and 200 μL media. Cells were incubated for 4 hr at 37° C. then ASK1 compounds were added using a HP 300e. Compounds were tested at 20 μM with 3 fold, 10 point dilution points then incubated for 1 hr at 37° C. A lysis buffer (Cell Signaling) was prepared with protease and phosphatase inhibitor and maintained at 4° C. until use. Media from cells was discarded and 120 μL of cold lysis buffer was added to the cells, the plate was shaken 4° C. for 1 hr. Lysate was mixed using Apricot liquid handler; aspirating up and down 16 times at high speed using 50 μL volume. […] Plates were then incubated on a plate shaker overnight at 4° C. Plates were washed 3× with MSD wash buffer and 50 μL of rabbit anti-pASK1 T838 antibody was added to the wells and incubated for 2 hr at room temperature on a plate shaker. Plates were then washed and 50 μL of goat anti-rabbit sulfa-tag (1:500 dilution) was added to wells, and incubated for 1 hr at room temperature on a plate shaker. […] Plates were immediately read on a MSD Instrument Reader where chemoluminecense signal was measured. Data was analyzed using Graph Pad or Genedata, the data was normalized and plotted, % activity versus log of compound concentration. The IC50 values were obtained from a 4 parameter fit.

[2] = 20 μM myelin basic protein (MBP), 10 μM ATP

ASK1/MAP3K5, sequence (Q99683 whole entry): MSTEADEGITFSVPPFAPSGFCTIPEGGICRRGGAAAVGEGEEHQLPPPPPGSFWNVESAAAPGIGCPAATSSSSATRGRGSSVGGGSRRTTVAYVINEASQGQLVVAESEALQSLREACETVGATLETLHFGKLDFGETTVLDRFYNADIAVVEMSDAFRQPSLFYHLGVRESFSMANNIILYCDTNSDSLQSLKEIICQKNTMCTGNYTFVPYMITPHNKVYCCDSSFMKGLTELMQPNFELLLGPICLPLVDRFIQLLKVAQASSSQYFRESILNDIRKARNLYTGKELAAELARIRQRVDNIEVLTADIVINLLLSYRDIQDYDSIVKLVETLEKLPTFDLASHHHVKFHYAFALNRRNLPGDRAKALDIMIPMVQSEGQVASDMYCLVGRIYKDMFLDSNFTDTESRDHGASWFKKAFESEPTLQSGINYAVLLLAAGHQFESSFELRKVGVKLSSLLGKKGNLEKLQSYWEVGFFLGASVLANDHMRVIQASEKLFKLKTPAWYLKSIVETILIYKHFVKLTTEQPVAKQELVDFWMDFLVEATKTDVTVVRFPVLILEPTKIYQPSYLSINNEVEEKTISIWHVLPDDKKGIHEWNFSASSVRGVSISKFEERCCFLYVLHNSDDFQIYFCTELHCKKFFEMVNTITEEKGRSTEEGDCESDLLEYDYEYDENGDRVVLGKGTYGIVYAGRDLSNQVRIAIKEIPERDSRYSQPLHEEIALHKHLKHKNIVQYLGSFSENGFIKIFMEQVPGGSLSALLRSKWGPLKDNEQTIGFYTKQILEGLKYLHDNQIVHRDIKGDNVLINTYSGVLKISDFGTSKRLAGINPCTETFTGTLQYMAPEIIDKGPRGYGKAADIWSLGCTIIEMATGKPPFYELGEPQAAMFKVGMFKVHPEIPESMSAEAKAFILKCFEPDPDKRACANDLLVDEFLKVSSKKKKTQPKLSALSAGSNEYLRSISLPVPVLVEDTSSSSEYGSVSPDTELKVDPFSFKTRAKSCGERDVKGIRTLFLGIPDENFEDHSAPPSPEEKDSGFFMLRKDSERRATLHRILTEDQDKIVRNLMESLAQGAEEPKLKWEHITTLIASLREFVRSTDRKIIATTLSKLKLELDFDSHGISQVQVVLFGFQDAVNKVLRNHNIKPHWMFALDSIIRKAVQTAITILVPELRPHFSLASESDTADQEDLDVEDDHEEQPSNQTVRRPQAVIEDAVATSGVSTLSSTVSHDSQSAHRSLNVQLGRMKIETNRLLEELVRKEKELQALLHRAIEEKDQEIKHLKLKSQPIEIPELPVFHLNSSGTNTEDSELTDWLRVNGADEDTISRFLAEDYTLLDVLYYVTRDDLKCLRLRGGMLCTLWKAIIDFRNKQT
ASK1 T838 auto phosphorylation in HEK-293T cells, sequence (Q99683 whole entry): as above

Compound: C[C@H]1CCOc2cc(F)c(Br)cc2C(=O)Nc2cccc(n2)-c2nncn2C1 [Example 124, (S)-5^5-Bromo-5^4-fluoro-9-methyl-1^4H-6-oxa-3-aza-2(2,6)-pyridina-1(3,4)-triazola-5(1,2)-benzenacyclodecaphan-4-one]
- IC50 (ASK1/MAP3K5; [2]): < 100 nM
- IC50 [1]: < 1000 nM

Compound: CN(C)Cc1ccc2c(c1)C(=O)Nc1cccc(n1)-c1nncn1CCCCO2 [Example 48, 5^5-((Dimethylamino)methyl)-1^4H-6-oxa-3-aza-2(2,6)-pyridina-1(3,4)-triazola-5(1,2)-benzenacyclodecaphan-4-one]
- IC50 (ASK1/MAP3K5; [2]): < 100 nM
- IC50 [1]: < 1000 nM

Compound: C[C@H]1CCCn2cnnc2-c2cccc(n2)NC(=O)c2cc(N3CCOCC3)ccc2O1 [Example 142, (S)-7-Methyl-5^5-morpholino-1^4H-6-oxa-3-aza-2(2,6)-pyridina-1(3,4)-triazola-5(1,2)-benzenacyclodecaphan-4-one]
- IC50 (ASK1/MAP3K5; [2]): < 100 nM
- IC50 [1]: < 1000 nM

Compound: CN1CCn2ncc(-c3ccc4c(c3)C(=O)Nc3cccc(n3)-c3nncn3CCCCO4)c2C1 [Example 40, 5^5-(5-Methyl-4,5,6,7-tetrahydropyrazolo[1,5-a]pyrazin-3-yl)-1^4H-6-oxa-3-aza-2(2,6)-pyridina-1(3,4)-triazola-5(1,2)-benzenacyclodecaphan-4-one]
- IC50 (ASK1/MAP3K5; [2]): < 100 nM
- IC50 [1]: < 1000 nM

Compound: C[C@@H]1CCCn2cnnc2-c2cccc(n2)NC(=O)c2cc(-c3ccncc3)ccc2O1 [Example 145, (R)-7-Methyl-5^5-(pyridin-4-yl)-1^4H-6-oxa-3-aza-2(2,6)-pyridina-1(3,4)-triazola-5(1,2)-benzenacyclodecaphan-4-one]
- IC50 (ASK1/MAP3K5; [2]): < 100 nM
- IC50 [1]: < 1000 nM

Compound: Cc1ccc(-c2cc3c(cc2F)OCCCCn2cnnc2-c2cccc(n2)NC3=O)cn1 [Example 57, 5^4-Fluoro-5^5-(6-methylpyridin-3-yl)-1^4H-6-oxa-3-aza-2(2,6)-pyridina-1(3,4)-triazola-5(1,2)-benzenacyclodecaphan-4-one]
- IC50 (ASK1/MAP3K5; [2]): < 100 nM
- IC50 [1]: < 1000 nM

Compound: C[C@H]1CCCOc2cc(F)c(-c3cnn(C)c3)cc2C(=O)Nc2cccc(n2)-c2nncn21 [Example 114, (S)-5^4-Fluoro-10-methyl-5^5-(1-methyl-1H-pyrazol-4-yl)-1^4H-6-oxa-3-aza-2(2,6)-pyridina-1(3,4)-triazola-5(1,2)-benzenacyclodecaphan-4-one]
- IC50 (ASK1/MAP3K5; [2]): < 100 nM
- IC50 [1]: < 1000 nM

Compound: C[C@@H]1CCOc2cc(F)c(Br)cc2C(=O)Nc2cccc(n2)-c2nncn2C1 [Example 125, (R)-5^5-Bromo-5^4-fluoro-9-methyl-1^4H-6-oxa-3-aza-2(2,6)-pyridina-1(3,4)-triazola-5(1,2)-benzenacyclodecaphan-4-one]
- IC50 (ASK1/MAP3K5; [2]): 100 to 1000 nM
- IC50 [1]: 1000 to 10000 nM

Compound: C[C@H]1CCCOc2cc(F)c(C3=CCOCC3)cc2C(=O)Nc2cccc(n2)-c2nncn21 [Example 108, (S)-5^5-(3,6-Dihydro-2H-pyran-4-yl)-5^4-fluoro-10-methyl-1^4H-6-oxa-3-aza-2(2,6)-pyridina-1(3,4)-triazola-5(1,2)-benzenacyclodecaphan-4-one]
- IC50 (ASK1/MAP3K5; [2]): < 100 nM
- IC50 [1]: < 1000 nM

Compound: C[C@H]1CCCOc2cc(F)c(-c3cncc(C(F)(F)F)c3)cc2C(=O)Nc2cccc(n2)-c2nncn21 [Example 111, (S)-5^4-Fluoro-10-methyl-5^5-(5-(trifluoromethyl)pyridin-3-yl)-1^4H-6-oxa-3-aza-2(2,6)-pyridina-1(3,4)-triazola-5(1,2)-benzenacyclodecaphan-4-one]
- IC50 (ASK1/MAP3K5; [2]): < 100 nM
- IC50 [1]: < 1000 nM

Compound: C[C@@H]1CCCOc2ccc(F)cc2C(=O)Nc2cccc(n2)-c2nncn21 [Example 100, (R)-5^5-Fluoro-10-methyl-1^4H-6-oxa-3-aza-2(2,6)-pyridina-1(3,4)-triazola-5(1,2)-benzenacyclodecaphan-4-one]
- IC50 (ASK1/MAP3K5; [2]): 100 to 1000 nM
- IC50 [1]: 1000 to 10000 nM

Compound: CN(C)CCOc1cc2c(cc1F)OCCCCn1cnnc1-c1cccc(n1)NC2=O [Example 76, 5^5-(2-(Dimethylamino)ethoxy)-5^4-fluoro-1^4H-6-oxa-3-aza-2(2,6)-pyridina-1(3,4)-triazola-5(1,2)-benzenacyclodecaphan-4-one]
- IC50 (ASK1/MAP3K5): < 100 nM
- IC50 [1]: < 1000 nM

Compound: O=C1Nc2cccc(n2)-c2nncn2CCCCOc2ccc(-c3cnn(C4COC4)c3)cc21 [Example 38, 5^5-(1-(Oxetan-3-yl)-1H-pyrazol-4-yl)-1^4H-6-oxa-3-aza-2(2,6)-pyridina-1(3,4)-triazola-5(1,2)-benzenacyclodecaphan-4-one]
- IC50 (ASK1/MAP3K5; [2]): < 100 nM
- IC50 [1]: < 1000 nM

Compound: CN1CCn2ncc(-c3cc4c(cc3F)OCCCCn3cnnc3-c3cccc(n3)NC4=O)c2C1 [Example 65, 5^4-Fluoro-5^5-(5-methyl-4,5,6,7-tetrahydropyrazolo[1,5-a]pyrazin-3-yl)-1^4H-6-oxa-3-aza-2(2,6)-pyridina-1(3,4)-triazola-5(1,2)-benzenacyclodecaphan-4-one]
- IC50 (ASK1/MAP3K5; [2]): < 100 nM
- IC50 [1]: < 1000 nM

Compound: C[C@H]1CCCOc2cc(F)c(C#N)cc2C(=O)Nc2cccc(n2)-c2nncn21 [Example 118, (S)-5^4-Fluoro-10-methyl-4-oxo-1^4H-6-oxa-3-aza-2(2,6)-pyridina-1(3,4)-triazola-5(1,2)-benzenacyclodecaphane-5^5-carbonitrile]
- IC50 (ASK1/MAP3K5; [2]): < 100 nM
- IC50 [1]: < 1000 nM

Compound: O=C1Nc2cccc(n2)-c2nncn2C/C=C/COc2ccc(N3CCOCC3)cc21 [Example 168, (E)-5^5-Morpholino-1^4H-6-oxa-3-aza-2(2,6)-pyridina-1(3,4)-triazola-5(1,2)-benzenacyclodecaphan-8-en-4-one]
- IC50 (ASK1/MAP3K5): < 100 nM
- IC50 [1]: < 1000 nM

Compound: (R)-5^4-Bromo-10-methyl-1^4H-6-oxa-3-aza-2(2,6)-pyridina-1(3,4)-triazola-5(1,2)-benzenacyclodecaphan-4-one [Example 121]
- IC50 (ASK1/MAP3K5; [2]): 1000 to 10000 nM
- IC50 [1]: > 10000 nM

Compound: Cc1cn(-c2ccc3c(c2)C(=O)Nc2cccc(n2)-c2nncn2CCC[C@H](C)O3)cn1 [Example 148, (S)-7-Methyl-5^5-(4-methyl-1H-imidazol-1-yl)-1^4H-6-oxa-3-aza-2(2,6)-pyridina-1(3,4)-triazola-5(1,2)-benzenacyclodecaphan-4-one]
- IC50 (ASK1/MAP3K5): < 100 nM
- IC50 [1]: < 1000 nM

Compound: COCCOc1cc2c(cc1F)OCCC[C@H](C)n1cnnc1-c1cccc(n1)NC2=O [Example 117, (S)-5^4-Fluoro-5^5-(2-methoxyethoxy)-10-methyl-1^4H-6-oxa-3-aza-2(2,6)-pyridina-1(3,4)-triazola-5(1,2)-benzenacyclodecaphan-4-one]
- IC50 (ASK1/MAP3K5; [2]): < 100 nM
- IC50 [1]: < 1000 nM

Compound: C[C@H]1CCCOc2cc(F)c(-c3cnn(CCN(C)C)c3)cc2C(=O)Nc2cccc(n2)-c2nncn21 [Example 115, (S)-5^5-(1-(2-(Dimethylamino)ethyl)-1H-pyrazol-4-yl)-5^4-fluoro-10-methyl-1^4H-6-oxa-3-aza-2(2,6)-pyridina-1(3,4)-triazola-5(1,2)-benzenacyclodecaphan-4-one]
- IC50 (ASK1/MAP3K5; [2]): < 100 nM
- IC50 [1]: < 1000 nM

Compound: O=C1Nc2cccc(n2)-c2nncn2C/C=C\CCOc2cc(F)c(Br)cc21 [Example 176, (E)-5^5-Bromo-5^4-fluoro-1^4H-6-oxa-3-aza-2(2,6)-pyridina-1(3,4)-triazola-5(1,2)-benzenacycloundecaphan-9-en-4-one]
- IC50 (ASK1/MAP3K5; [2]): < 100 nM
- IC50 [1]: 1000 to 10000 nM

Compound: O=C1Nc2cccc(n2)-c2nncn2C/C=C\CCOc2ccccc21 [Example 174, (E)-1^4H-6-Oxa-3-aza-2(2,6)-pyridina-1(3,4)-triazola-5(1,2)-benzenacycloundecaphan-9-en-4-one]
- IC50 (ASK1/MAP3K5; [2]): < 100 nM
- IC50 [1]: < 1000 nM
